PubChem BioAssay (NCI)
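96-well plates; 48 h exposure; 5 concentrations. Endpoints by linear interpolation between flanking doses. Not reached: highest tested concentration assigned. GI50 marks 50% less growth. The concentration for full growth arrest is given as TGI.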

How the values were obtained:
Assay in all cases: DTP human tumour cell line panel, 48 h
IGROV1 ovarian = test system: IGROV1 ovarian
UO-31 renal = test system: UO-31 renal
OVCAR-3 ovarian = test system: OVCAR-3 ovarian
SK-MEL-2 melanoma = test system: SK-MEL-2 melanoma
NCI-H522 lung = test system: NCI-H522 lung
A549 NSCLC = test system: A549 NSCLC
SF-539 CNS = test system: SF-539 CNS
HCT-116 colon = test system: HCT-116 colon
HCC-2998 colon = test system: HCC-2998 colon
MDA-MB-435 = test system: MDA-MB-435
MDA-MB-231 breast = test system: MDA-MB-231 breast
RXF 393 renal = test system: RXF 393 renal
KM12 colon = test system: KM12 colon
SK-OV-3 ovarian = test system: SK-OV-3 ovarian
NCI-H226 lung = test system: NCI-H226 lung
CCRF-CEM leukemia = test system: CCRF-CEM leukemia
SW-620 colon = test system: SW-620 colon
SF-268 CNS = test system: SF-268 CNS
CAKI-1 renal = test system: CAKI-1 renal
OVCAR-8 ovarian = test system: OVCAR-8 ovarian
DU-145 prostate = test system: DU-145 prostate
ACHN renal = test system: ACHN renal
SK-MEL-28 melanoma = test system: SK-MEL-28 melanoma
TK-10 renal = test system: TK-10 renal
NCI/ADR-RES ovarian = test system: NCI/ADR-RES ovarian
HCT-15 colon = test system: HCT-15 colon
PC-3 prostate = test system: PC-3 prostate
BT-549 breast = test system: BT-549 breast
SR leukemia = test system: SR leukemia
HS 578T breast = test system: HS 578T breast
RPMI-8226 leukemia = test system: RPMI-8226 leukemia
T-47D breast = test system: T-47D breast
COLO 205 colon = test system: COLO 205 colon
A498 renal = test system: A498 renal
HL-60(TB) leukemia = test system: HL-60(TB) leukemia
MOLT-4 leukemia = test system: MOLT-4 leukemia
MCF7 breast = test system: MCF7 breast
NCI-H23 lung = test system: NCI-H23 lung
UACC-257 melanoma = test system: UACC-257 melanoma
K-562 leukemia = test system: K-562 leukemia
UACC-62 melanoma = test system: UACC-62 melanoma
SF-295 CNS = test system: SF-295 CNS
OVCAR-5 ovarian = test system: OVCAR-5 ovarian
U251 CNS = test system: U251 CNS
MDA-MB-468 breast = test system: MDA-MB-468 breast
OVCAR-4 ovarian = test system: OVCAR-4 ovarian
EKVX NSCLC = test system: EKVX NSCLC
HOP-92 NSCLC = test system: HOP-92 NSCLC
LOX IMVI melanoma = test system: LOX IMVI melanoma
HOP-62 NSCLC = test system: HOP-62 NSCLC
SNB-19 CNS = test system: SNB-19 CNS
SK-MEL-5 melanoma = test system: SK-MEL-5 melanoma
MALME-3M melanoma = test system: MALME-3M melanoma
NCI-H460 lung = test system: NCI-H460 lung
SNB-75 CNS = test system: SNB-75 CNS
SN12C renal = test system: SN12C renal
HT29 colon = test system: HT29 colon
M14 melanoma = test system: M14 melanoma
786-0 renal = test system: 786-0 renal

CC[C@@]12CC(C(=O)OC)=C3Nc4cc5c(cc4[C@@]34CCN(C[C@H]3O[C@H]31)[C@@H]24)[C@@H]1[C@H](O5)[C@@H](O)[C@@]2(CC)CC(C(=O)OC)=C3Nc4cc(OC)ccc4[C@@]34CCN1[C@@H]24
GI50 (IGROV1 ovarian): 548 nM | TGI (IGROV1 ovarian): > 22.8 µM | GI50 (UO-31 renal): 167 nM | TGI (UO-31 renal): > 26 µM | GI50 (OVCAR-3 ovarian): 453 nM | TGI (OVCAR-3 ovarian): 13.4 µM | GI50 (SK-MEL-2 melanoma): 1610 nM | TGI (SK-MEL-2 melanoma): > 39 µM | GI50 (NCI-H522 lung): 182 nM | TGI (NCI-H522 lung): 2840 nM | GI50 (A549 NSCLC): 706 nM | TGI (A549 NSCLC): > 54 µM | GI50 (SF-539 CNS): 416 nM | TGI (SF-539 CNS): > 54 µM | GI50 (HCT-116 colon): 253 nM | TGI (HCT-116 colon): 2930 nM | GI50 (HCC-2998 colon): 423 nM | TGI (HCC-2998 colon): 1950 nM | GI50 (MDA-MB-435): 320 nM | TGI (MDA-MB-435): > 54 µM | GI50 (MDA-MB-231 breast): 330 nM | TGI (MDA-MB-231 breast): > 40.3 µM | GI50 (RXF 393 renal): 1150 nM | TGI (RXF 393 renal): 6.01 µM | GI50 (KM12 colon): 939 nM | TGI (KM12 colon): > 54 µM | GI50 (SK-OV-3 ovarian): 336 nM | TGI (SK-OV-3 ovarian): 5.48 µM | GI50 (NCI-H226 lung): 485 nM | TGI (NCI-H226 lung): > 54 µM | GI50 (CCRF-CEM leukemia): 376 nM | TGI (CCRF-CEM leukemia): > 54 µM | GI50 (SW-620 colon): 1810 nM | TGI (SW-620 colon): > 54 µM | GI50 (SF-268 CNS): 2990 nM | TGI (SF-268 CNS): > 54 µM | GI50 (CAKI-1 renal): 142 nM | TGI (CAKI-1 renal): > 54 µM | GI50 (OVCAR-8 ovarian): 736 nM | TGI (OVCAR-8 ovarian): > 54 µM | GI50 (DU-145 prostate): 5.67 µM | TGI (DU-145 prostate): > 54 µM | GI50 (ACHN renal): 727 nM | TGI (ACHN renal): 15.2 µM | GI50 (SK-MEL-28 melanoma): 1380 nM | TGI (SK-MEL-28 melanoma): > 54 µM | GI50 (TK-10 renal): 219 nM | TGI (TK-10 renal): 52.3 µM | GI50 (NCI/ADR-RES ovarian): 731 nM | TGI (NCI/ADR-RES ovarian): 20.7 µM | GI50 (HCT-15 colon): 293 nM | TGI (HCT-15 colon): 4.03 µM | GI50 (PC-3 prostate): 657 nM | TGI (PC-3 prostate): > 54 µM | GI50 (BT-549 breast): 307 nM | TGI (BT-549 breast): > 13.1 µM | GI50 (SR leukemia): 254 nM | TGI (SR leukemia): > 46.5 µM | GI50 (HS 578T breast): 128 nM | TGI (HS 578T breast): > 54 µM | GI50 (RPMI-8226 leukemia): 136 nM | TGI (RPMI-8226 leukemia): 2210 nM | GI50 (T-47D breast): 466 nM | TGI (T-47D breast): > 54 µM | GI50 (COLO 205 colon): 356 nM | TGI (COLO 205 colon): 2770 nM | GI50 (A498 renal): 698 nM | TGI (A498 renal): 24.7 µM | GI50 (HL-60(TB) leukemia): 74.8 nM | TGI (HL-60(TB) leukemia): 1270 nM | GI50 (MOLT-4 leukemia): 1220 nM | TGI (MOLT-4 leukemia): 23.2 µM | GI50 (MCF7 breast): 174 nM | TGI (MCF7 breast): > 54 µM | GI50 (NCI-H23 lung): 890 nM | TGI (NCI-H23 lung): 20.2 µM | GI50 (UACC-257 melanoma): 436 nM | TGI (UACC-257 melanoma): > 54 µM | GI50 (K-562 leukemia): 218 nM | TGI (K-562 leukemia): > 54 µM | GI50 (UACC-62 melanoma): 168 nM | TGI (UACC-62 melanoma): 3.83 µM | GI50 (SF-295 CNS): 891 nM | TGI (SF-295 CNS): > 44.7 µM | GI50 (OVCAR-5 ovarian): 1520 nM | TGI (OVCAR-5 ovarian): > 54 µM | GI50 (U251 CNS): 911 nM | TGI (U251 CNS): > 54 µM | GI50 (MDA-MB-468 breast): 181 nM | TGI (MDA-MB-468 breast): 1200 nM | GI50 (OVCAR-4 ovarian): 656 nM | TGI (OVCAR-4 ovarian): > 54 µM | GI50 (EKVX NSCLC): 928 nM | TGI (EKVX NSCLC): > 54 µM | GI50 (HOP-92 NSCLC): 248 nM | TGI (HOP-92 NSCLC): > 43.7 µM | GI50 (LOX IMVI melanoma): 273 nM | TGI (LOX IMVI melanoma): 1250 nM | GI50 (HOP-62 NSCLC): 313 nM | TGI (HOP-62 NSCLC): > 54 µM | GI50 (SNB-19 CNS): 660 nM | TGI (SNB-19 CNS): > 40.4 µM | GI50 (SK-MEL-5 melanoma): 370 nM | TGI (SK-MEL-5 melanoma): 2290 nM | GI50 (MALME-3M melanoma): 605 nM | TGI (MALME-3M melanoma): > 43.1 µM | GI50 (NCI-H460 lung): 1370 nM | TGI (NCI-H460 lung): > 54 µM | GI50 (SNB-75 CNS): 63.1 nM | TGI (SNB-75 CNS): > 54 µM | GI50 (SN12C renal): 1560 nM | TGI (SN12C renal): > 54 µM | GI50 (HT29 colon): 228 nM | TGI (HT29 colon): > 54 µM | GI50 (M14 melanoma): 416 nM | TGI (M14 melanoma): > 54 µM | GI50 (786-0 renal): 267 nM | TGI (786-0 renal): > 54 µM
